Experimental findings from patent US20260285857A1, “BICYCLIC AND HETEROCYCLIC AMIDE COMPOUNDS” (priority 2024, published 2026) are described below.

For this assay, the system named is immunoglobulin light chain protein WIL-FL T46L. As to the kind of experiment: Differential scanning fluorimetry (thermal shift) assay. Type of assay: binding. As to conditions: temperature shift [Tm]compound-[Tm]vehicle, recombinant WIL-FL T46L.

Regarding `Cc1cc(N2CC[C@](C)(c3ccccc3)C2)cn2nc(C(=O)N3CC[C@@H]4NC(=O)C[C@@H]43)nc12` [Compound 762], the DSF entry (Table B) is given as “***** (>2.5° C.=*****)”.

`Cc1cc(N2CC[C@@](C)(c3cccc(F)c3)C2)cn2nc(C(=O)N3CC[C@@]4(CCN(c5cccc(C(=O)O)n5)C4)C3)nc12` [Compound 763, 6-((R)-7-(6-((S)-3-(3-fluorophenyl)-3-methylpyrrolidin-1-yl)-8-methyl-[1,2,4]triazolo[1,5-a]pyridine-2-carbonyl)-2,7-diazaspiro[4.4]nonan-2-yl)picolinic acid]: the DSF result (Table B) is recorded as “***** (>2.5° C.=*****)”.

With `CNC(=O)C1C2COC1(c1nc3c(C)cc(N4CC[C@](C)(c5ccccc5)C4)cn3n1)C2` (stereo partly drawn) [Example 72], the DSF entry (Table A) is listed as “***** (>2.5° C.=*****)”.
